{"source": "patent US7989649B2", "about": "“Tumor imaging compounds” (Emory University, priority 2002, dated 2011)", "test_system": "9 L gliosarcoma cells", "test": "Amino acid uptake inhibition assay in 9 L gliosarcoma cells", "assay_type": "cell-based, rat", "settings": "for uptake of activity blocked by BCH relative to controls: BCH 10 mM; for uptake of activity blocked by BCH relative to controls / uptake of activity blocked by N-MeAIB relative to controls: 30 minutes, 9 L gliosarcoma cells; for uptake of activity blocked by N-MeAIB relative to controls: N-MeAIB 10 mM; for intracellular accumulation in 9 L gliosarcoma cells: absence of inhibitors, 30 minutes of incubation; for substrate for A-type amino acid transport system: based on inhibition of uptake by N-MeAIB", "protocol": "Amino acid uptake inhibition assays. The 9 L gliosarcoma cells were initially grown as monolayers in T-flasks containing Dulbecco's Modified Eagle's Medium (DMEM) under humidified incubator conditions (37° C., 5% CO2/95% air). The growth media was supplemented with 10% fetal calf serum and antibiotics (10,000 units/ml penicillin and 10 mg/ml streptomycin). The growth media was replaced three times per week, and the cells were passaged so the cells would reach confluency in a week's time.\nWhen the monolayers were confluent, cells were prepared for experimentation in the following manner. Growth media was removed from the T-flask, and the monolayer cells were exposed to 1× trypsin:EDTA for ˜1 minute to weaken the protein attachments between the cells and the flask. The flask was then slapped, causing the cells to release. Supplemented media was added to inhibit the proteolytic action of the trypsin, and the cells were aspirated through an 18 Ga needle until they were monodisperse. A sample of the cells was counted under a microscope using a hemocytometer, and the live/dead fraction estimated through trypan blue staining (>98% viability). The remainder of the cells was placed into a centrifuge tube, centrifuged at 75 G for 5 minutes, and the supernatant was removed. The cells were then resuspended in amino-acid/serum-free DMEM salts.\nIn this study, approximately 4.55×10^5 cells were exposed to either [^18F]5a or [^18F]5b (5 μCi) in 3 ml of amino acid free media±transporter inhibitors (10 mM) for 30 minutes under incubator conditions in 12×75 mm glass vials. Each assay condition was performed in duplicate. After incubation, cells were twice centrifuged (75 G for 5 minutes) and rinsed with ice-cold amino-acid/serum-free DMEM salts to remove residual activity in the supernatant. The vials were placed in a Packard Cobra II Auto-Gamma counter, the raw counts decay corrected, and the activity per cell number determined. The data from these studies (expressed as percent uptake relative to control) were graphed using Excel, with statistical comparisons between the groups analyzed using a 1-way ANOVA (GraphPad Prism software package).", "data": [{"smiles": "CC(N)(CF)C(=O)O", "note": "(racemic) [[^18F]5a, 2-amino-3-fluoro-2-methylpropanoic acid]", "values": [{"measurement": "uptake of activity blocked by BCH relative to controls", "value": 48, "unit": "%"}, {"measurement": "uptake of activity blocked by N-MeAIB relative to controls", "value": 80, "unit": "%"}, {"measurement": "intracellular accumulation in 9 L gliosarcoma cells", "value": "0.43 % of the initial dose per million cells"}, {"measurement": "substrate for non-A transport system", "setting": "based on inhibition of uptake by BCH", "value": "substrate in vitro for at least one non-A transport system, possibly system L"}, {"measurement": "substrate for A-type amino acid transport system", "value": "substrates for the A-type amino acid transport system"}]}, {"smiles": "CNC(C)(CF)C(=O)O", "note": "(racemic) [[^18F]5b, 3-fluoro-2-methyl-2-(methylamino)propanoic acid]", "values": [{"measurement": "uptake of activity blocked by BCH relative to controls", "value": 33, "unit": "%"}, {"measurement": "uptake of activity blocked by N-MeAIB relative to controls", "value": 88, "unit": "%"}, {"measurement": "intracellular accumulation in 9 L gliosarcoma cells", "value": "0.50 % of the initial dose per million cells"}, {"measurement": "substrate for A-type amino acid transport system", "value": "substrates for the A-type amino acid transport system"}, {"measurement": "selectivity for A-type amino acid transport", "setting": "compared with [18F]5a", "value": "more selective substrate for the A-type amino transport system than [^18F]5a"}]}]}
